Test system: Mushroom tyrosinase
Assay: Mushroom tyrosinase assay
Format: biochemical
Settings: L-Tyrosine substrate, 25° C., 30 min
Method: Mushroom tyrosinase and L-Tyrosine were obtained from Sigma-Aldrich, Inc. (St. Louis, Mo.). The enzyme activity was measured in buffer containing 100 mM phosphate buffer pH 6.8, 5% absolute ethanol, 2 micrograms/milliliter mushroom tyrosinase, and 0.2 mg/ml L-Tyrosine. The reaction (conversion of L-Tyrosine to DOPAchrome) was conducted in triplicates at 25° C. for 30 min, and absorbance was then measured at 492 nm. Kojic Acid was used as a positive control inhibitor in these assays. Percent change in tyrosinase activity relative to vehicle control was calculated.

[1] = test compound concentration 0.0010%

Tyrosinase Inhibition (percent change in tyrosinase activity compared to DMSO vehicle control) [1] [%]	Tyrosinase Inhibition (percent change in tyrosinase activity compared to DMSO vehicle control) (test compound concentration 0.0100%) [%]	SMILES
−46	–	Cc1cc(C)cc(Nc2nc(-c3ccc(O)cc3O)cs2)c1 [AV4662]
−75	−59	CN1CCN(c2nc(-c3ccc(O)cc3O)cs2)CC1 [AV5370]
